Source: patent US20260125375A1 (Pfizer Inc., priority 2022, published 2026)

Tests used:
CBL-B (residues 36-427) = target: T1, CBL-B (residues 36-427) (Homo sapiens, UniProt Q13191); test: Ligand Displacement Assay (LDA), HTRF competitive binding against BODIPY-labeled fluorescent tracer, CBL-B; conditions: geometric mean of the number of tests, read-out: CBL-B Ki (nM) GMean
T1 construct: Purified CBL-B (residues 36-427) and C-CBL (residues 46-435) proteins from baculovirus-infected insect cells; made in house; host or cells: baculovirus-infected insect cells
Excerpt: (§1) Ligand Displacement Assay (LDA)
(§2) The purpose of the homogeneous time-resolved fluorescence energy transfer (HTRF) ligand displacement assay is to determine whether the compounds of the disclosure are competitive with a BODIPY-labeled compound; “fluorescent tracer” aka [6-cyclopropyl-5-(17-{5-[(3,5-dimethyl-2H-pyrrol-2-ylidene-KN)methyl]-1H-pyrrol-2-yl-κN}-15-oxo-5,8,11-trioxa-2,14-diazaheptadecan-1-yl)-N-(3-{3-[(4-methyl-4H-1,2,4-triazol-3-yl)methyl]oxetan-3-yl}phenyl)pyridine-2-carboxamidato](difluorido)boron and to assess CBL-B binding selectivity over C-CBL. The synthesis of this fluorescent tracer compound is described below.
(§3) Purified CBL-B (residues 36-427) and C-CBL (residues 46-435) proteins from baculovirus-infected insect cells were biotin labeled on their amino-terminal AviTag™ epitopes by the E. coli biotin ligase BirA to bind terbium-labeled streptavidin (SA-Tb). After optimizing the assays and determining KD values for the fluorescent tracer to CBL-B and C-CBL, compounds were tested using three-fold serial dilutions in duplicate from a top concentration of […] with a final DMSO concentration of 2%. […] The Ki (nM) values reported are the geometric means (GMean) of the number of tests conducted.

C-CBL (residues 46-435) = target: T2, C-CBL (residues 46-435) (Homo sapiens, UniProt P22681); test: Ligand Displacement Assay (LDA), HTRF competitive binding against BODIPY-labeled fluorescent tracer, C-CBL; conditions: geometric mean of the number of tests, read-out: C-CBL Ki (nM) GMean
T2 construct: Purified CBL-B (residues 36-427) and C-CBL (residues 46-435) proteins from baculovirus-infected insect cells; made in house; host or cells: baculovirus-infected insect cells
T2 sequence (P22681 46-435): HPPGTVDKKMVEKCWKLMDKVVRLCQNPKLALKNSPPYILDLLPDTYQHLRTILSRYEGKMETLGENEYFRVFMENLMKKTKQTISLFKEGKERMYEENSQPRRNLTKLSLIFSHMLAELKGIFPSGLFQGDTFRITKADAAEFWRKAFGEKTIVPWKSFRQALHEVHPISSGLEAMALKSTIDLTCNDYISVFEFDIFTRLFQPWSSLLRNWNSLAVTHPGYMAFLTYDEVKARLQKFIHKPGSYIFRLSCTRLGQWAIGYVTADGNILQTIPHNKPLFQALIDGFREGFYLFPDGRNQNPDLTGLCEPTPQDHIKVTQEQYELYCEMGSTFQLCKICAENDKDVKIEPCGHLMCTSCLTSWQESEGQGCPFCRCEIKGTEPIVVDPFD
Excerpt: as §1, §2, §3

Row | SMILES | Ki (CBL-B (residues 36-427)) [nM] | Ki (C-CBL (residues 46-435)) [nM]
1 | CC(N[C@H]1CCC[C@@H]1O)c1nc(C(F)(F)F)cc2c(-c3cccc([C@H](c4nncn4C)C4CCCCC4)c3)n[nH]c12 (single isomer, unassigned) [Example C102] | 10.7 | 113
2 | CC(N[C@H](C)[C@H](C)O)c1nc(C(F)(F)F)cc2c(-c3cccc([C@H](c4nncn4C)C4CCC4)c3)n[nH]c12 (single isomer, unassigned) [Example C116] | 18.2 | 204
3 | CC(NC[C@H](C)O)c1nccc2c(-c3cccc([C@H](c4nncn4C)C4CCC4)c3)n[nH]c12 (single isomer, unassigned) [Example C125] | 12.2 | 147
4 | C[C@H](N[C@H]1COC[C@H]1O)c1nc(C(F)(F)F)cc2c(-c3cccc([C@H](c4nncn4C)C4CCC4)c3)n[nH]c12 (single isomer, unassigned) [Example D57] | 5.2 | 46.7
5 | C[C@@H](N[C@H]1COC[C@H]1O)c1nc(C(F)(F)F)cc2c(-c3cccc([C@H](c4nncn4C)C4CCC4)c3)n[nH]c12 (single isomer, unassigned) [Example D58] | 14.3 | 173
6 | C[C@@H](N[C@@H]1COC[C@H]1O)c1nc(C(F)(F)F)cc2c(-c3cccc([C@H](c4nncn4C)C4CCC4)c3)n[nH]c12 (single isomer, unassigned) [Example D60] | 12.3 | 82.3
7 | C[C@H](N[C@H]1COC[C@H]1O)c1nc(C(F)(F)F)cc2c(-c3cccc([C@H](c4nncn4C)C4CCC4)c3)n[nH]c12 (single isomer, unassigned) [Example D61] | 22 | 145
8 | C[C@@H](N[C@H]1COC[C@@H]1O)c1nc(C(F)(F)F)cc2c(-c3cccc([C@H](c4nncn4C)C4CCC4)c3)n[nH]c12 (single isomer, unassigned) [Example D62] | 4.3 | 39.8
9 | CC[C@@H](c1cccc(-c2n[nH]c3c([C@H](C)NC[C@H](C)O)nc(C(F)(F)F)cc23)c1)c1nncn1C (single isomer, unassigned) [Example D78] | 71.2 | 271
10 | CC[C@@H](c1cccc(-c2n[nH]c3c([C@@H](C)NC[C@H](C)O)nc(C(F)(F)F)cc23)c1)c1nncn1C (single isomer, unassigned) [Example D79] | 296 | 1160
11 | Cn1cnnc1[C@@H](c1cccc(-c2n[nH]c3c(CN[C@H]4CC[C@H]4O)nc(C(F)(F)F)cc23)c1)C1CCC1 (single isomer, unassigned) [Example D92] | 4.5 | 36.1
12 | Cn1cnnc1[C@@H](c1cccc(-c2n[nH]c3c(CN[C@@H]4CC[C@@H]4O)nc(C(F)(F)F)cc23)c1)C1CCC1 (single isomer, unassigned) [Example D93] | 0.8 | 2.4
13 | CC(O)c1nc(C2CC2)cc2c(-c3cccc(C4(Cc5nncn5C)COC4)c3)n[nH]c12 (single isomer, unassigned) [Example H5, (1ξ)-1-[5-cyclopropyl-3-(3-{3-[(4-methyl-4H-1,2,4-triazol-3-yl)methyl]oxetan-3-yl}phenyl)-1H-pyrazolo[3,4-c]pyridin-7-yl]ethan-1-ol] | 28.5 | 93.6
14 | CC(O)c1nc(C2CC2)cc2c(-c3cccc(C4(Cc5nncn5C)COC4)c3)n[nH]c12 (single isomer, unassigned) [Example H6, (1ξ)-1-[5-cyclopropyl-3-(3-{3-[(4-methyl-4H-1,2,4-triazol-3-yl)methyl]oxetan-3-yl}phenyl)-1H-pyrazolo[3,4-c]pyridin-7-yl]ethan-1-ol] | 35.6 | 142
15 | CC(NC(=O)[C@@H](C)O)c1nc(C(F)(F)F)cc2c(-c3cccc([C@H](c4nncn4C)C4CCC4)c3)n[nH]c12 (single isomer, unassigned) [Example I6] | 7.8 | 84.3
16 | Cn1cnnc1[C@@H](c1cccc(-c2n[nH]c3c(C4CCCN4)nc(C(F)(F)F)cc23)c1)C1CCC1 (single isomer, unassigned) [Example L3] | 20.1 | 159
17 | Cn1cnnc1[C@@H](c1cccc(-c2n[nH]c3c(C4CCCN4)nc(C(F)(F)F)cc23)c1)C1CCC1 (single isomer, unassigned) [Example L4] | 19.2 | 178
18 | CC(=O)NC(C)c1nc(C(F)(F)F)cc2c(-c3cccc(C4(Cc5nncn5C)COC4)c3)n[nH]c12 (single isomer, unassigned) [Example M1, N-{(1ξ)-1-[3-(3-{3-[(4-methyl-4H-1,2,4-triazol-3-yl)methyl]oxetan-3-yl}phenyl)-5-(trifluoromethyl)-1H-pyrazolo[3,4-c]pyridin-7-yl]ethyl}acetamide] | 26.3 | 79.4
19 | CC(=O)NC(C)c1nc(C(F)(F)F)cc2c(-c3cccc([C@H](c4nncn4C)C4CCC4)c3)n[nH]c12 (single isomer, unassigned) [Example M2] | 30.9 | 225
20 | CC(=O)NC(C)c1nc(C(F)(F)F)cc2c(-c3cccc(C4(Cc5nncn5C)COC4)c3)n[nH]c12 (single isomer, unassigned) [Example M6, N-{(1ξ)-1-[3-(3-{3-[(4-methyl-4H-1,2,4-triazol-3-yl)methyl]oxetan-3-yl}phenyl)-5-(trifluoromethyl)-1H-pyrazolo[3,4-c]pyridin-7-yl]ethyl}acetamide] | 19.5 | 68.6
21 | Cn1cnnc1[C@@H](c1cccc(-c2n[nH]c3ncc(Cl)cc23)c1)C1CCC1 [Example A4, 5-chloro-3-{3-[(R)-cyclobutyl(4-methyl-4H-1,2,4-triazol-3-yl)methyl]phenyl}-1H-pyrazolo[3,4-b]pyridine] | 17.9 | 279
22 | Cn1cnnc1[C@@H](c1cccc(-c2n[nH]c3ncc(C(F)(F)F)cc23)c1)C1CCC1 [Example A5, 3-{3-[(R)-cyclobutyl(4-methyl-4H-1,2,4-triazol-3-yl)methyl]phenyl}-5-(trifluoromethyl)-1H-pyrazolo[3,4-b]pyridine] | 89.1 | 1060
23 | Cn1cnnc1CC1(c2cccc(-c3n[nH]c4cnc(C(F)(F)F)nc34)c2)COC1 [Example B2, 3-(3-{3-[(4-methyl-4H-1,2,4-triazol-3-yl)methyl]oxetan-3-yl}phenyl)-5-(trifluoromethyl)-1H-pyrazolo[4,3-d]pyrimidine] | 398 | 2400
24 | Cn1cnnc1CC1(c2cccc(-c3n[nH]c4cc(F)c(F)cc34)c2)COC1 [Example B5, 5,6-difluoro-3-(3-{3-[(4-methyl-4H-1,2,4-triazol-3-yl)methyl]oxetan-3-yl}phenyl)-1H-indazole] | 58.9 | 375
25 | Cn1cnnc1CC1(c2cccc(-c3n[nH]c4ccc(F)cc34)c2)COC1 [Example B6, 5-fluoro-3-(3-{3-[(4-methyl-4H-1,2,4-triazol-3-yl)methyl]oxetan-3-yl}phenyl)-1H-indazole] | 71.8 | 437
26 | CN(C)c1nc2[nH]nc(-c3cccc([C@H](c4nncn4C)C4CCC4)c3)c2cc1C(F)(F)F [Example E1, 3-{3-[(R)-cyclobutyl(4-methyl-4H-1,2,4-triazol-3-yl)methyl]phenyl}-N,N-dimethyl-5-(trifluoromethyl)-1H-pyrazolo[3,4-b]pyridin-6-amine] | 268 | 2320
27 | CN1CCC[C@@H]1COc1nc(C(F)(F)F)cc2c(-c3cccc(C4(Cc5nncn5C)COC4)c3)n[nH]c12 [Example J6, 7-{[(2R)-1-methylpyrrolidin-2-yl]methoxy}-3-(3-{3-[(4-methyl-4H-1,2,4-triazol-3-yl)methyl]oxetan-3-yl}phenyl)-5-(trifluoromethyl)-1H-pyrazolo[3,4-c]pyridine] | 48.9 | 196
28 | Cn1cnnc1CC1(c2cccc(-c3n[nH]c4c(OC5CCCC5)nc(C(F)(F)F)cc34)c2)COC1 [Example J7, 7-(cyclopentyloxy)-3-(3-{3-[(4-methyl-4H-1,2,4-triazol-3-yl)methyl]oxetan-3-yl}phenyl)-5-(trifluoromethyl)-1H-pyrazolo[3,4-c]pyridine] | 92 | 420
29 | C[C@@H](N)c1nc(C(F)(F)F)cc2c(-c3cccc([C@H](c4nncn4C)C4CCCCC4)c3)n[nH]c12 [Example K1, (1R)-1-[3-{3-[(R)-cyclohexyl(4-methyl-4H-1,2,4-triazol-3-yl)methyl]phenyl}-5-(trifluoromethyl)-1H-pyrazolo[3,4-c]pyridin-7-yl]ethan-1-amine] | 36 | 289
